Results: patent US8859781B2, “No-releasing nonoate(nitrogen-bound)sulfonamide-linked-coxib anti-cancer agents” (Euclises Pharmaceuticals, Inc., priority 2012, dated 2014)

System: PGE2 levels in exudate (carrageenan-challenged air pouch)
Assay: Air pouch assay of acute inflammation measuring exudate volume and PGE2 levels in exudate in rats
Type: in vivo, Sprague-Dawley rats
Conditions: rat air pouch; for PGE2 (pg/mL), mean in exudate / Volume (mL), mean collected exudate volume: 0.01 mmol/kg oral 2 h before 1% carrageenan, exudate 4 h after carrageenan, group mean, 5 rats/group; for PGE2 (pg/mL), mean in exudate: ELISA; for reduction in collected exudate volume / reduction in exudate PGE2 release / effect on the carrageenan-induced increase in PGE2 release / effect on the carrageenan-induced increase in exudate volume: 0.01 mmol/kg oral pretreatment; for reduction in collected exudate volume / reduction in exudate PGE2 release: vs vehicle; for effect on the carrageenan-induced increase in PGE2 release / effect on the carrageenan-induced increase in exudate volume: result in words
Procedure: Compound Testing in the Air Pouch Assay of Acute Inflammation Measuring PGE2 Levels in Exudate in Rats
Animals: Sprague-Dawley rats (Charles River Laboratories., R #3234, PO #738990, male, 160-180 g) were received, individually examined, and housed in cages of five rats each. The rats were ear notched for identification purposes.
Compounds and Dosing Solutions: The vehicle was prepared by dissolving 40 g (2-hydroxypropyl)-β-cyclodextrin (HP-β-CD, Sigma, Cat. 332593, lot MKBJ5858V) in 160 mL sterile saline for injection, USP (Hospira, lot 26-801-FW) making a 25% solution which was filter sterilized (0.2 μm, Nalgene, Cat. 151-4020, lot 1095610). A 1% carrageenan solution was prepared by dissolving […] (Fluka, Cat. 22049, lot 1318338) in hot 60 mL sterile saline for injection, USP. This solution was stored at 4-8° C. Test compounds were dissolved in DMSO (Fisher Scientific, Cat. D128-500, lot 874999) to make 75 mM stocks. 0.25 mL of compound DMSO stocks were mixed with 12.5 mL of HP-13-CD solution at 50° C. (maximum DMSO concentration was 2% of the final volume of vehicle,). Final concentration of all test compounds was 1.5 mM and compounds were dosed within 2 hours of preparation at 0.01 mmol/kg (12 […] of test compound per rat).
Day 0—Air Pouch Initiation: The rats were anesthetized in a biological cabinet, the nape of the neck was cleansed with 70% isopropanol (Butler Schein Animal Health, Cat. 002498, lot 29EMS07104547) followed by 1% povidone-iodine solution (Ricca Chemical Co., Cat. 3955-16, lot 2205469). Twenty mL of sterile (0.22 μm, Millipore, Cat. SLGP033RS, lot R2KA55925, exp August 2015) air was injected subcutaneously (SC) using a 23G×1½ inch needle fixed to a 20 mL syringe. The rats were returned to routine housing. No adverse reactions were observed.
Day 3—Air Pouch Maintenance: The rats were anesthetized in a biological cabinet, the nape of the neck was cleansed with 70% isopropanol followed by 1% povidone-iodine solution. Ten mL of sterile air was injected SC using a 23G×1½ inch needle fixed to a 20 mL syringe. The rats were returned to routine housing in clean cages. No adverse reactions were observed.
Day 6—Compound Administration and Carrageenan Insult: At commencement of the study, each rat was weighed and sorted into treatment groups of 5 rats/group based upon average weight. Each rat was dosed orally via gavage at 6.809 mL/kg (1.6 mL/235 g) with their respective test material/vehicle. Two hours after test material/vehicle administration, the rats were injected with 1.0 mL of the room temperature 1% carrageenan saline solution into the air pouch. Four hours after carrageenan injection, the rats were anesthetized and 5 mL of the exudate buffer was injected into the air pouch. The pouch was gently massaged, the exudate immediately removed, and exudate volume recorded. The exudate was collected in a serum separator tube on an ice bath. The exudates were centrifuged (refrigerated) and an aliquot of the supernatant was stored in a labeled Eppendorf tube at −80° C.
Termination of Study: Animals were euthanized via CO2 asphyxiation at the completion of the in-life portion of this study and carcasses were disposed of according to standard protocols.
Data Analysis: The exudate samples were thawed to room temperature and assayed by ELISA for PGE2 (R&D Systems, Cat. KGE004B, lot 307711). Statistical significance of treatments on mean exudate volumes are determined by comparison of means for treatment groups with vehicle group. Mean cytokine concentrations and standard deviations are determined for each group. Statistical significance of treatments on cytokine concentrations are determined for each compound group compared to vehicle group. Statistical significance (p-value) was calculated vs control groups by Student's t-Test.

Compound | PGE2 (pg/mL), mean in exudate | Volume (mL), mean collected exudate volume | reduction in collected exudate volume | reduction in exudate PGE2 release | effect on the carrageenan-induced increase in PGE2 release | effect on the carrageenan-induced increase in exudate volume
Cc1ccc(-c2cc(C(F)(F)F)nn2-c2ccc(S(N)(=O)=O)cc2)cc1 [Celecoxib, 4-(5-(p-Tolyl)-3-(trifluoromethyl)-1H-pyrazol-1-yl)benzenesulfonamide, reference compound] | 907.1 pg/mL | 4.6 mL | 19% | 80% | – | –
Cc1ccc(-c2cc(C(F)(F)F)nn2-c2ccc(S(=O)(=O)NC(=O)OCCN(C)/[N+]([O-])=N/OCOC(=O)C(C)(C)C)cc2)cc1 [Compound 202, (Z)-5,12,12-Trimethyl-1,11-dioxo-1-(4-(5-(p-tolyl)-3-(trifluoromethyl)-1H-pyrazol-1-yl)phenylsulfonamido)-2,8,10-trioxa-5,6,7-triazatridec-6-ene 6-oxide] | 4959.1 pg/mL | 5.6 mL | – | – | did not show any effect | did not show any effect
Cc1ccc(-c2cc(C(F)(F)F)nn2-c2ccc(S(=O)(=O)NC(=O)CN(C)/[N+]([O-])=N/OCOC(=O)C(C)(C)C)cc2)cc1 [Compound 602, (Z)-3-Methyl-3-(2-oxo-2-(4-(5-(p-tolyl)-3-(trifluoromethyl)-1H-pyrazol-1-yl)phenylsulfonamido)ethyl)-1-((pivaloyloxy)methoxy)triaz-1-ene 2-oxide] | 1915.2 pg/mL | 4.5 mL | 20% | 56% | – | –
CN(CCO)/[N+]([O-])=N/OCOC(=O)C(C)(C)C [Compound N402, (Z)-3-(2-Hydroxyethyl)-3-methyl-1-((pivaloyloxy)methoxy)triaz-1-ene 2-oxide] | 3782.4 pg/mL | 5.4 mL | – | – | did not show any effect | did not show any effect
